Measured values as given in PubChem BioAssay AID1261 (University of Pittsburgh Molecular Library Screening Center, 2008).
Inconclusive results are not listed. Calls of active or inactive are those of the source. How the calls were made is not given here.

molecular target: Tyrosine-protein phosphatase YopH [Yersinia enterocolitica]; assay: potency against Yersinia YopH phosphatase – biochemical, 10-point dose range, dose response (AID 1261); conditions: YopH phosphatase enzymatic assay, IC50, 3 runs

SMILES	IC50
CCOC(=O)C1=C(C)NC2(O)c3ccccc3C(=O)C12O (stereo not drawn)	> 50 µM (inactive)
COc1cc(C2C(C(=O)OC(C)C)=C(C)Nc3[nH]c(=O)[nH]c(=O)c32)ccc1O (stereo not drawn)	> 50 µM (inactive)
CCOC(=O)/C(N=Nc1ccc(F)cc1)=C(/O)c1ccc([N+](=O)[O-])cc1	> 50 µM (inactive)
CCN(CC)c1ccc(/C=N/Nc2cccc(C)c2)c(O)c1	> 50 µM (inactive)
CSc1nsc(/C=C/Nc2ccc(Cl)cc2)c1C#N	> 50 µM (inactive)
C=CCOC(=O)C1=C(C)NC2(O)c3ccccc3C(=O)C12O (stereo not drawn)	> 50 µM (inactive)
CC1=C(C(=O)OCC(C)C)C2(O)C(=O)c3ccccc3C2(O)N1 (stereo not drawn)	> 50 µM (inactive)
CC1=C(C)C(=O)C(CCCCC#CCCCC#CCO)=C(C)C1=O	> 50 µM (inactive)
CCCCOC(=O)C1=C(C)NC2(O)c3ccccc3C(=O)C12O (stereo not drawn)	> 50 µM (inactive)

same assay, conditions: YopH phosphatase enzymatic assay, IC50, 3 runs; inhibition; at 50 µM; stronger effect = higher value

SMILES	inhibition [%]
O=C(/C(=C(\[O-])c1ccccc1)[n+]1ccc2ccccc2c1)c1ccccc1	-13.2
CCN(CC)c1ccc(NC(=O)c2cccc(OC)c2)c(C)c1	-4.28
N#Cc1c(N)n(CCNC(=O)c2cccs2)c2nc3ccccc3nc12	-16.9
Cc1ccccc1/[N+]([O-])=C/c1ccncc1	15.6
CCOc1cc(CNc2ccc(N3CCCC3)cc2)cc(Cl)c1OC	-6.54
COc1ccc(CCN2C(=O)c3ccncc3C2=O)cc1OC	0.113
CCc1ccc(S(=O)(=O)/N=C2/C=C(Sc3ncn[nH]3)C(=O)c3ccccc32)cc1	17.2
Cc1ccc2c(C)[nH]c(=O)cc2c1	0.968
CCOC(=O)C1=C(C)NC2(O)c3ccccc3C(=O)C12O (stereo not drawn)	40
CCO/C=C1/C(=O)N(Cc2ccccc2)C(=O)c2ccccc21	49.7
CCOc1ccc(C(=S)N2CCOCC2)cc1OC	-1.37
O=C(OCC1O[C@@H](OC(=O)c2cc(O)c(O)c(O)c2)[C@@H](OC(=O)c2cc(O)c(O)c(O)c2)[C@@H](OC(=O)c2cc(O)c(O)c(O)c2)[C@@H]1OC(=O)c1cc(O)c(O)c(O)c1)c1cc(O)c(O)c(O)c1 (stereo partly drawn)	72.5
Nc1c(NCc2ccccc2F)c(=O)[nH]c(=O)n1Cc1ccccc1	33.1
Cc1onc(-c2ccccc2)c1C(=O)NCc1ccccn1	-11.6
O=[N+]([O-])c1ccc(-c2csc3[n+]2CCS3)cc1	20.8
CN1C(=O)C(Cc2cccc3ccccc23)C(=O)N(C)C1=O	20.5
Cc1ccc(CSCCNC(=O)CN2C(=O)c3ccccc3S2(=O)=O)cc1	-6.7
COc1ccc(CN2C(=O)c3ccccc3C(/C=N\OCc3ccc(F)cc3)C2=O)cc1 (stereo not drawn)	3.35
CN(C(=O)COc1ccc(C(C)(C)C)cc1)C1CCS(=O)(=O)C1 (stereo not drawn)	-19.1
O=C1CCC(=O)N1CC(=O)N1c2ccccc2Sc2ccccc21	-12.5
O=C(CSc1nnc(-c2ccccc2)o1)n1c2c(c3ccccc31)CCCC2	-10.9
COc1cc(C2C(C(=O)OC(C)C)=C(C)Nc3[nH]c(=O)[nH]c(=O)c32)ccc1O (stereo not drawn)	4.55
CCCNc1nc2c(c(=O)[nH]c(=O)n2C)n1Cc1ccc(F)cc1	-11.6
C#CCn1cc(C=C2C(=O)c3ccccc3C2=O)c2ccccc21	11.1
CCOC(=O)c1oc2ccc(Br)cc2c1CSc1nnc(C)s1	-12.1
COc1cccc(-c2nc(CS(=O)(=O)CC(=O)N3CCc4ccccc4C3)c(C)o2)c1	-0.295

SMILES	inhibition [%]
CC1=CC(=C(C#N)c2nc3ccccc3s2)C=C(C)N1c1ccc(F)cc1	8.34
CCO/C=C1\C(=O)N(c2ccccc2)C(=O)c2ccccc21	39.1
COc1ccccc1NC(=O)N1CCC(C(=O)c2ccc(F)cc2)CC1	-5.37
CCOC(=O)Oc1ccc2oc(=O)cc(C)c2c1	-13.7
O=C1CC(N(O)c2ccccc2)C(=O)N1Cc1ccccc1 (stereo not drawn)	-4.47
O=C(NCc1ccccc1)C1CCCN1S(=O)(=O)c1cccc2cccnc12 (stereo not drawn)	-2.68
CCOC(=O)/C(N=Nc1ccc(F)cc1)=C(/O)c1ccc([N+](=O)[O-])cc1	-5.66
O=C(NC(Cc1c[nH]c2ccccc12)c1nnc2n1CCCCC2)c1cccs1 (stereo not drawn)	0.82
O=C(Nc1nnc(C(F)(F)F)s1)c1ccc(N2C(=O)C3C4C=CC(C4)C3C2=O)cc1 (stereo not drawn)	-8.43
Cc1ccc(NC(=O)c2ccnc(C(C)(C)C)c2)cc1	-1.22
Cc1ccc(NC2=C(N3CCCCC3)C(=O)c3ccccc3C2=O)cc1	35.4
CCN1CCN(CCCOc2ccc(-c3ccccc3)cc2)CC1	-0.391
CCN(CC)c1ccc(/C=N/Nc2cccc(C)c2)c(O)c1	9.95
Cc1ccc(C(=O)N2C(=S)C(c3ccc(F)cc3)=NC23CCN(C)CC3)cc1	-3.79
O=C(/C=C/c1ccc(O)cc1)c1ccc(NC2=C(N3CCCCC3)C(=O)c3ccccc3C2=O)cc1	18.9
CCN(CC)c1ccc(C=Nc2ccccc2)c(O)c1	17.6
COc1ccc(-c2nnc(SCC(=O)c3cccs3)o2)c(OC)c1	-10.6
CSc1nsc(/C=C/Nc2ccc(Cl)cc2)c1C#N	-6.81
C=CCOC(=O)C1=C(C)NC2(O)c3ccccc3C(=O)C12O (stereo not drawn)	24.6
CN(CC(=O)N1CCCc2c1c(=O)oc1ccc(O)cc21)Cc1ccccc1	-1.35
COc1ccc2c(c1)c(=O)cc(C)n2CC(=O)NCc1ccco1	-3.64
Cc1ccc(C(c2sc3nc(C)nn3c2O)N2CCOCC2)cc1 (stereo not drawn)	-10.3
CCC(=O)N1Cc2ccccc2-c2ccccc2C1=O	-4.86
COc1cc(NCCCCCCCN)c2ncccc2c1	56.5
Cc1[nH]n(-c2ccccc2)c(=O)c1C(C[N+](=O)[O-])c1ccc(Cl)cc1 (stereo not drawn)	-6.86
N#Cc1ccccc1Cn1cc(C#N)c2ccccc21	-11.8

SMILES	inhibition [%]
COC(=O)C1C(C(C)C)N(c2ccccc2)OC1(C)O (stereo not drawn)	-0.943
CCOC(=O)c1ccc(NS(=O)(=O)c2cc(-c3nnnn3C(C)C)ccc2OC)cc1	-7.2
CC(=O)Nc1ccc(-c2nnc(SCC(=O)n3c4c(c5ccccc53)CCCC4)n2C)cc1	-7.8
CC1CCN(CCC(=O)N2CCCc3c2c(=O)oc2ccc(O)cc32)CC1	-1.24
O=C(NN=c1c(=O)c2ccccc2c1=O)c1ccccc1	-14.5
Cc1oc2ccccc2c1-c1cn2c(n1)SCC2	-2.41
Clc1ccc(C2=CSC3=Nc4cccc5cccc(c45)N23)cc1	13.3
CC1(C)COC(/C=C/c2ccc([N+](=O)[O-])cc2)=N1	-8.03
CCOC(=O)N1CCN(C(=O)Cn2c(C)cc3ccccc3c2=O)CC1	-14.1
O=C1C(Nc2ccccc2)=C(N2CCCCC2)C(=O)c2ccccc21	41.9
CCOc1ccc(-c2nnc3ccc(SCC(=O)Nc4nc5ccccc5s4)nn23)cc1	-11.8
CCOC(=O)c1c(C)oc2c1c(C=NCc1ccccn1)c(O)c1ccccc12	2.53
COC(=O)c1ccc(Cl)c(NC(=O)CN2CCN(Cc3ccccc3)CC2)c1	-9.15
CCc1cc[n+](C2=C([O-])c3ccccc3C(=O)/C2=N\S(=O)(=O)c2cccs2)cc1	2.75
O=C1C(Nc2cccc(O)c2)=C(N2CCCCC2)C(=O)c2ccccc21	35.8
Cc1cccc(OCCCCc2c(C)n[nH]c2C)c1	-10.5
COC(=O)CSc1nnc(CNC(=O)c2cccc(C)c2)n1-c1ccccc1OC	-14.7
COc1ccc(-n2nc3ccccc3n2)cc1	-5.75
COc1ccccc1-c1c(C)nn2c(N3CCCCCC3)cc(C)nc12	-1.28
CC(=O)N1C(=O)/C(=C2\SC(=S)N(c3c(C)n(C)n(-c4ccccc4)c3=O)C2=O)c2ccccc21	4.95
CC(=O)NC1=C(N(C)C2CCS(=O)(=O)C2)C(=O)c2ccccc2C1=O (stereo not drawn)	9.79
O=C(O)C1OC(Oc2cc3oc(-c4ccccc4)cc(=O)c3c(O)c2O)C(O)C(O)C1O (stereo not drawn)	-26.6
CC(C(=O)N1CCCc2c1c(=O)oc1ccc(O)cc21)N1CCc2ccccc2C1 (stereo not drawn)	0.0785
CCOC(=O)C(NC(=O)Nc1ccccc1)(OCC)C(F)(F)F (stereo not drawn)	2.58
[O-]/[N+](=C\c1ccc(F)cc1)c1ccccc1	2.44
O=C(O)c1ccccc1SCC(=O)N1c2ccccc2Sc2ccccc21	-57.4

SMILES	inhibition [%]
CCOC(=O)c1nc(C)n(-c2ccc(Cl)cc2)n1	-5.92
CC1=C(C(=O)OCC(C)C)C2(O)C(=O)c3ccccc3C2(O)N1 (stereo not drawn)	31.7
COc1ccc(N2C(=O)[C@@H]3[C@H](C2=O)[C@H]2c4ccccc4C=CN2[C@@H]3C(C)=O)cc1	-6.89
Cc1ccc(N2C(=O)[C@@H]3[C@H](C2=O)C2c4ccccc4C=CN2[C@@H]3C(=O)c2ccco2)c(C)c1 (stereo partly drawn)	20.7
CCN1CCC2(CC1)N=C(c1ccc(F)cc1)C(=S)N2C(=O)c1ccc(C)cc1	28.6
Cc1nc2ccccc2c(=O)n1NC(=O)c1c(O)c2c(n(CC(C)C)c1=O)CCCC2	-4.05
Cc1ccc(C(C[N+](=O)[O-])c2c(C)[nH]n(-c3ccccc3)c2=O)cc1 (stereo not drawn)	-20.8
C=CCc1cccc2cc(C(=O)Nc3ccc(S(=O)(=O)Nc4nnc(CC)s4)cc3)c(=O)oc12	23.8
Cc1csc(N2CCc3ccccc32)n1	-9.56
O=C(CN1C(=O)C2CC=CCC2C1=O)Nc1nnc(SCc2ccc(Cl)cc2)s1 (stereo not drawn)	-4.26
Cc1noc(NS(=O)(=O)c2ccc(NC(=O)CCCOc3ccc(Cl)cc3Cl)cc2)c1C	-12.1
Oc1ccc(C=Nc2ccc3ncccc3c2)c(O)c1	-3.62
CC1=C(C)C(=O)C(CCCCC#CCCCC#CCO)=C(C)C1=O	0.676
COc1ccc(/C=N/NC(=O)C(C)n2cnc3ccccc3c2=O)cc1OC (stereo not drawn)	8.51
O=C(c1ccco1)N1CCN(CC(=O)N2CCCc3c2c(=O)oc2ccc(O)cc32)CC1	-5.68
O=c1cc(CN2CCN(c3ccccc3F)CC2)c2cc(O)c(-c3ccccc3)cc2o1	4.58
COC(=O)N(NC(=O)C(O)(CCC(C)C)CCC(C)C)c1ccccc1	4.94
CC(=O)OCCCNc1cc(SCc2ccco2)c2nonc2c1[N+](=O)[O-]	-2.61
O=C(/C=C/c1ccc([N+](=O)[O-])cc1)OCC(=O)N1c2ccccc2Sc2ccccc21	-1.56
COc1ccc(NC(=O)/C(=C/c2cccnc2)NC(=O)c2cccs2)cc1	-16.6
Cc1c(Br)cc(C(=O)OC2CCN(C)CC2)c(C)c1C	0.211
CCCCn1c(N)c(NCCC(C)C)c(=O)[nH]c1=O	33
Cc1ccc(NC2=C(N3CCOCC3)C(=O)c3ccccc3C2=O)cc1	18
O=C(c1ccc(F)cc1)[C@@H]1[C@@H](C(=O)c2ccccc2)[C@@]2(C(=O)Nc3ccccc32)[C@H]2c3ccccc3C=CN12	13.8
CCCCOC(=O)C1=C(C)NC2(O)c3ccccc3C(=O)C12O (stereo not drawn)	36.9
CC1=CC(=C(C#N)c2nc3ccccc3s2)C=C(C)N1c1ccc(F)cc1F	1.55
